Values after ≈ are worked out from the molar mass of the structure shown. Non-standard residues stand in square brackets, D forms with d. Residues, ends and D or L forms follow the SMILES beside them. *: point of attachment. Tetradecanoyl(3R-OH) = CCCCCCCCCCC[C@@H](O)CC(=O)*; Tetradecanoyl(3S-OH) = CCCCCCCCCCC[C@H](O)CC(=O)*
Legend:
human red blood cells = type: cell-based; details: red cells of human, 1 h
Description: Figure 3 The hemolytic activity of synthetic humimycin analogs 12R, 12S, 13R, and 13S on human erythrocytes. Positive control: 0.2% Triton X-100 in PBS, negative control: PBS. The data represent the mean ± standard deviation of three independent experiments.
Hemolytic potential of the humimycin analogs 12R, 12S, 13R, and 13S, was evaluated by exposing fresh, uninfected red blood cells (RBCs) to 16 two-fold serial dilutions of each analog, ranging from 512 μg/mL to 0.015 μg/mL, in RPMI-1640 medium supplemented with HEPES and containing a maximum of 0.5% dimethyl sulfoxide (DMSO). The assay was performed in round-bottom 96-well plates at a final hematocrit of 1%. Mock control wells contained RBCs in RPMI-1640 with 1% DMSO, while 100% lysis control wells contained RBCs in RPMI-1640 with 1% DMSO and 1% Triton X-100. The plates were incubated for 1 h at 37 °C under a gassed atmosphere. Following incubation, the plates were centrifuged at 800× g for 5 min, and 100 μL of supernatant from each well was transferred to a clean flat-bottom 96-well plate. The absorbance of released hemoglobin in the supernatant was measured at 405 nm using a VICTOR plate reader (PerkinElmer). The percentage of hemolysis was calculated by comparing the absorbance of the supernatant from compound-treated RBCs to that of the mock control and 100% lysis control wells. All assays were performed in triplicates.

[1] = system: Bacillus subtilis ATCC 23857; assay: MIC, broth microdilution; type: cell-based; details: 37 °C, 18–20 h, triplicate
Source text: (§1) Analogs were serially diluted two-fold from stock solutions.

[2] = system: Pseudomonas aeruginosa ATCC 27853; assay: MIC, broth microdilution; type: cell-based; details: 37 °C, 18–20 h, triplicate
Source text: as §1

[3] = system: Salmonella enterica ATCC 14028; assay: MIC, broth microdilution; type: cell-based; details: 37 °C, 18–20 h, triplicate
Source text: as §1

[4] = system: Escherichia coli ATCC 25922; assay: MIC, broth microdilution; type: cell-based; details: 37 °C, 18–20 h, triplicate
Source text: as §1

S. aureus strain 4-170 = details: broth microdilution, triplicate; isolate 4-170, no resistance profile listed
Source text: (§2) The bacterial strains used in this study included S. aureus ATCC 29213 and ATCC 43300, B. subtilis ATCC […], E. coli ATCC 25922, P. aeruginosa ATCC 27853, and S. enterica serovar Typhimurium ATCC 14028, all of which were purchased from Cedarlane, Canada. Additionally, a collection of 19 S. aureus strains, ranging from antibiotic-sensitive to multidrug-resistant, and originating from clinical intramammary infections (IMI), was selected from the Mastitis Pathogen Culture Collection of the Canadian Bovine Mastitis Research Network (Université de Montréal, St-Hyacinthe, QC, Canada). These strains, previously used in other studies, were also included in this work. S. aureus ATCC 29213 and B. subtilis ATCC 6633 were cultured in Tryptic Soy Broth (TSB) (Difco^TM, Becton, Dickenson & Company, Spark, MD, USA). E. coli ATCC 25922 and P. aeruginosa ATCC 27853 were grown in Luria–Bertani (LB) broth (Fisher Scientific, Fair Lawn, NJ, USA). S. enterica serovar Typhimurium ATCC 14028 was propagated in Nutrient Broth (NB) (Oxoid, Basingstoke, UK). All bacterial cultures were incubated overnight at 37 °C before use and during the performance of assays.
(§3) MIC assays were performed using the broth microdilution method in 96-well plates. Analogs were serially diluted two-fold from stock solutions. The plates were incubated overnight at 37 °C and bacterial growth was monitored by measuring the absorbance at 595 nm over 18–20 h and the assay was performed in triplicate.

S. aureus strain 4-153 = details: broth microdilution, triplicate; isolate 4-153, no resistance profile listed
Source text: as §2, §3

S. aureus strain 4-157 = details: broth microdilution, triplicate; isolate 4-157, no resistance profile listed
Source text: as §2, §3

S. aureus strain 4-121 = details: broth microdilution, triplicate; isolate 4-121, no resistance profile listed
Source text: as §2, §3

S. aureus strain 4-138 = details: broth microdilution, triplicate; isolate 4-138, no resistance profile listed
Source text: as §2, §3

S. aureus strain 4-156 = details: broth microdilution, triplicate; isolate 4-156, no resistance profile listed
Source text: as §2, §3

S. aureus strain A-165 = details: broth microdilution, triplicate; isolate A-165, resistance PEN-CEF-CTX-FOX-CIP-CC-KAN-GEN-STR-P/N
Source text: as §2, §3

S. aureus strain 4-133 = details: broth microdilution, triplicate; isolate 4-133, resistance PEN-CEF-CTX-FOX-CIP-CHL-KAN-GEN
Source text: as §2, §3

SMILES	HC50 (human red blood cells) [µg/mL]	MIC [1]	MIC [2]	MIC [3]	MIC [4]	MIC (S. aureus strain 4-170) [µg/mL]	MIC (S. aureus strain 4-153) [µg/mL]	MIC (S. aureus strain 4-157) [µg/mL]	MIC (S. aureus strain 4-121) [µg/mL]	MIC (S. aureus strain 4-138) [µg/mL]	MIC (S. aureus strain 4-156) [µg/mL]	MIC (S. aureus strain A-165) [µg/mL]	MIC (S. aureus strain 4-133) [µg/mL]
CCCCCCCCCCC[C@@H](O)CC(=O)N[C@@H](Cc1c[nH]c2ccccc12)C(=O)N[C@@H](CO)C(=O)N[C@H](Cc1c[nH]c2ccccc12)C(=O)N[C@@H](Cc1ccccc1)C(=O)N[C@@H](C(=O)N[C@H](C(=O)N[C@H](C(=O)O)C(C)C)C(C)C)[C@H](C)O [12R] ({Tetradecanoyl(3R-OH)}-WS[dW]F[dT]VV-OH)	44.8	- (No antimicrobial activity was detected up to 256 µg/mL)	- (No antimicrobial activity was detected up to 256 µg/mL)	- (No antimicrobial activity was detected up to 256 µg/mL)	- (No antimicrobial activity was detected up to 256 µg/mL)	4 (≈ 3.48 µM)	16 (≈ 13.9 µM)	16 (≈ 13.9 µM)	32 (≈ 27.8 µM)	4 (≈ 3.48 µM)	4 (≈ 3.48 µM)	256 (≈ 223 µM)	256 (≈ 223 µM)
CCCCCCCCCCC[C@H](O)CC(=O)N[C@@H](Cc1c[nH]c2ccccc12)C(=O)N[C@@H](CO)C(=O)N[C@H](Cc1c[nH]c2ccccc12)C(=O)N[C@@H](Cc1ccccc1)C(=O)N[C@@H](C(=O)N[C@H](C(=O)N[C@H](C(=O)O)C(C)C)C(C)C)[C@H](C)O [12S] ({Tetradecanoyl(3S-OH)}-WS[dW]F[dT]VV-OH)	60.8	- (No antimicrobial activity was detected up to 256 µg/mL)	- (No antimicrobial activity was detected up to 256 µg/mL)	- (No antimicrobial activity was detected up to 256 µg/mL)	- (No antimicrobial activity was detected up to 256 µg/mL)	8 (≈ 6.95 µM)	16 (≈ 13.9 µM)	16 (≈ 13.9 µM)	32 (≈ 27.8 µM)	4 (≈ 3.48 µM)	8 (≈ 6.95 µM)	256 (≈ 223 µM)	256 (≈ 223 µM)
CCCCCCCCCCC[C@@H](O)CC(=O)N[C@@H](Cc1c[nH]c2ccccc12)C(=O)N[C@@H](CO)C(=O)N[C@H](Cc1c[nH]c2ccccc12)C(=O)N[C@@H](Cc1ccccc1)C(=O)N[C@@H](C(=O)N[C@@H](C)C(=O)N[C@H](C(=O)O)C(C)C)[C@H](C)O [13R] ({Tetradecanoyl(3R-OH)}-WS[dW]F[dT]AV-OH)	76.8	- (No antimicrobial activity was detected up to 256 µg/mL)	- (No antimicrobial activity was detected up to 256 µg/mL)	- (No antimicrobial activity was detected up to 256 µg/mL)	- (No antimicrobial activity was detected up to 256 µg/mL)	8 (≈ 7.13 µM)	32 (≈ 28.5 µM)	32 (≈ 28.5 µM)	256 (≈ 228 µM)	16 (≈ 14.3 µM)	16 (≈ 14.3 µM)	>256	>256
CCCCCCCCCCC[C@H](O)CC(=O)N[C@@H](Cc1c[nH]c2ccccc12)C(=O)N[C@@H](CO)C(=O)N[C@H](Cc1c[nH]c2ccccc12)C(=O)N[C@@H](Cc1ccccc1)C(=O)N[C@@H](C(=O)N[C@@H](C)C(=O)N[C@H](C(=O)O)C(C)C)[C@H](C)O [13S] ({Tetradecanoyl(3S-OH)}-WS[dW]F[dT]AV-OH)	48	- (No antimicrobial activity was detected up to 256 µg/mL)	- (No antimicrobial activity was detected up to 256 µg/mL)	- (No antimicrobial activity was detected up to 256 µg/mL)	- (No antimicrobial activity was detected up to 256 µg/mL)	8 (≈ 7.13 µM)	32 (≈ 28.5 µM)	32 (≈ 28.5 µM)	256 (≈ 228 µM)	16 (≈ 14.3 µM)	8 (≈ 7.13 µM)	>256	>256

Reference: publication PMC12024397, “Structure–Activity Study of the Antimicrobial Lipopeptide Humimycin A and Screening Against Multidrug-Resistant Staphylococcus aureus” (Antibiotics, 2025)
